# Where two headings read alike, the source gives them in different places.
# Columns and labels:
# [1] = test system: sebaceous glands of the left ear; assay: Topical antiandrogenic activity, ear sebaceous glands model in the male hamster; format: in vivo; conditions: 3 μg daily dose for 14 days
# Method: Column 5 represents the percentage of inhibition of the area of the sebaceous glands of the left ear of the treated animals versus the area of the sebaceous glands of the left ear of the control animals. A 3 μg-daily dose for 14 days of tested compound dissolved in ten μL solution of ethanol: propylene Glycol (1:1; v: v) applied onto a region between the two cartilage ridges of the ventral surface of left pinna.
# D—In vivo Assessment of Topical Antiandrogenic Activity
# The antiandrogenic activity of compounds for topical use was determined using the ear sebaceous glands model in the male hamster.
# Male Golden Syrian Hamsters (SYR) of 110-120 g were obtained from Harlan Sprague-Dawley (Madison, USA) and housed up to 2 per plastic cage in a temperature (22±3° C.) and light (12 h light/day, lights on at 7h15)-controlled environment. The hamsters were fed with Certified Rodent Diet 5002 (pellet) and had access to tap water ad libitum. […]
# The total area of the sebaceous glands (μm^2) in each examined field was calculated by the Image Analyser. We also measured the total area, which has the length of 0.953 mm and the height between stratum granulosum and the cartilage. […] Thus, for each ear, two sections were cut and two fields from each section were analyzed. The total of the four readings was averaged and the mean standard error of the mean was calculated by the image analyzer. […]
# [2] = test system: Shionogi mouse mammary carcinoma cells; assay: Androgenic/antiandrogenic activity: inhibition of DHT-stimulated Shionogi cell number; format: cell-based; conditions: Mus musculus, DHT-stimulated Shionogi cell number
# [3] = biological target: T1, Human Androgen Receptor (Homo sapiens, UniProt P10275); assay: Androgen receptor binding assay ([3H]R1881, HAP) in cytosol of HEK-293 cells transfected with hAR; conditions: relative to R1881 = 100, transfected cells
# T1 sequence (P10275 1-920): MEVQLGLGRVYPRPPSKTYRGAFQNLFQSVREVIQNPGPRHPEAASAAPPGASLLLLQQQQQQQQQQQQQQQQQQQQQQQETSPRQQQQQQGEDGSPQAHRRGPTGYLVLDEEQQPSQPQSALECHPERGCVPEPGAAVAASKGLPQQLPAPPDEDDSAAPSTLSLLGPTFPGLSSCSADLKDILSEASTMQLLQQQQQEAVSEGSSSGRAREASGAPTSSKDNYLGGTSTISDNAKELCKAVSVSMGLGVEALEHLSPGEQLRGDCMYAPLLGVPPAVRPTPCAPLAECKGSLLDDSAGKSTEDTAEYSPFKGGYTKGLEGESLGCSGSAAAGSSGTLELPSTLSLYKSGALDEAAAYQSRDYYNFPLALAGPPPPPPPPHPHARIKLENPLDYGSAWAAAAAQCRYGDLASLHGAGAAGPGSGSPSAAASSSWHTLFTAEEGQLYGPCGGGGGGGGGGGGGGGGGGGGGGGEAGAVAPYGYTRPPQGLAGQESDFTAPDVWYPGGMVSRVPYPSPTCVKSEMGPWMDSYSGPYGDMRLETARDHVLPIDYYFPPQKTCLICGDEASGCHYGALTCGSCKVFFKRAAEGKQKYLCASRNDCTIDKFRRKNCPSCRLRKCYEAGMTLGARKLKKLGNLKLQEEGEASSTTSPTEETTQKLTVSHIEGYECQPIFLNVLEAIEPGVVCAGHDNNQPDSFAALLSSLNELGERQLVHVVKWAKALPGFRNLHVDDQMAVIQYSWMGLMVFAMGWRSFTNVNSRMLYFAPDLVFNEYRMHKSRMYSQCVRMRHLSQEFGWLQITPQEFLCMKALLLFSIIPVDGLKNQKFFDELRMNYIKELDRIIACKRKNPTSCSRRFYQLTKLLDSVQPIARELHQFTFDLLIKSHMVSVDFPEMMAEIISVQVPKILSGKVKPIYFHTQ
# [4] = test system: rat prostate, seminal vesicle, levator ani muscle; assay: Systemic antiandrogenic activity in orchidectomized immature male rats with DHT implant; format: in vivo; conditions: Rattus norvegicus, 168 h, rat +DHT, s.c. or p.o. (route not marked), 0.5 mg/animal daily 7 days
structure (smiles),measurement,setting,value
"CCC(c1ccc(OCCC2(O)CCN(c3ccc(C#N)c(C(F)(F)F)c3)CC2)cc1)N1CCCC1 (centres unmarked) [EM-7893, 4-(4-{2-[4-(1-propyl-pyrolidine)-phenoxy]-ethyl}-4-hydroxy-piperidin-1-yl)-2-trifluoromethyl-benzonitrile]",Hamster Topical 3 μg dose % inhibition vs cx (area of sebaceous glands of the left ear),[1],47%
same,IC50,"[2]; read-out: Shionogi Antiandrogenic Activity IC50, Table 2",5.1 nM
same,IC50,"[2]; read-out: Shionogi Antiandrogenic Activity IC50, Table 4",5.1 nM
same,Human Androgen Receptor Binding (%) RBA R1881 = 100,[3]; Table 2,10.3%
same,Human Androgen Receptor Binding (%) RBA R1881 = 100,[3]; Table 4,10.3%
same,inhibition in vivo at 0.5 mg,"[4]; read-out: Lev Ani % inhibition, Table 2, levator ani",26%
same,inhibition in vivo at 0.5 mg,"[4]; read-out: Prostate % inhibition, Table 2",6%
same,inhibition in vivo at 0.5 mg,"[4]; read-out: SV % inhibition, Table 2, seminal vesicle",38%
